This note sets out measurements from paper PMC6858373 (Scientific Reports, 2019).

One data set can be described thus: in vitro. To be noted: human.
The target of data set [1] is T1, FGF14:Nav1.6 C-tail complex (Homo sapiens, UniProt Q92915+Q9UQD0).
T1 construct: polymerase chain reaction (PCR) amplification of the FGF14 open reading frame (nt 1–855); C-terminal fragment of Nav1.6 (amino acids 1763–1976) fused with CD4ΔC-tail (amino acids 1–395); expressed in transfected cells
Briefly: Split-luciferase complementation assay (LCA) in Clone V double stable HEK293 cells. To be noted: for Split Luciferase Assay Z-score Set 1 / Split Luciferase Assay % Lum Set 1 / Split Luciferase Assay Z-score Set 2 / Split Luciferase Assay %Lum Set 2: CC_NCI screening; for Split Luciferase Assay Z-score Set 1 / Split Luciferase Assay % Lum Set 1: biological replicate Set 1; for Split Luciferase Assay Z-score Set 1 / Split Luciferase Assay Z-score Set 2: normalized to on-plate 0.3% DMSO controls; for Split Luciferase Assay % Lum Set 1 / Split Luciferase Assay %Lum Set 2: normalized to on-plate 0.3% DMSO controls (n=16 per plate); for Split Luciferase Assay Z-score Set 2 / Split Luciferase Assay %Lum Set 2: biological replicate Set 2; for Split Luciferase Assay %Lum Avg: average of Set 1 and Set 2, normalized to 0.3% DMSO controls. Type of data set: cell-based.

A further data set relates to Clone V cells. To be noted: human.
Data set [2] deals with full-length P. pyralis luciferase (Photinus pyralis, UniProt P08659, K549A/L550V/N119G/N50D/S548I). The data set is classed as cell-based.
[3] abbreviates: CC_NCI screening, normalized to on-plate 0.3% DMSO controls.

Structures can show the parent of a compound that is named as a salt. Where two headings read alike, the source gives them in different places.

full-length P. pyralis luciferase, sequence (P08659 whole entry N50D/N119G/S548I/K549A/L550V, looked up): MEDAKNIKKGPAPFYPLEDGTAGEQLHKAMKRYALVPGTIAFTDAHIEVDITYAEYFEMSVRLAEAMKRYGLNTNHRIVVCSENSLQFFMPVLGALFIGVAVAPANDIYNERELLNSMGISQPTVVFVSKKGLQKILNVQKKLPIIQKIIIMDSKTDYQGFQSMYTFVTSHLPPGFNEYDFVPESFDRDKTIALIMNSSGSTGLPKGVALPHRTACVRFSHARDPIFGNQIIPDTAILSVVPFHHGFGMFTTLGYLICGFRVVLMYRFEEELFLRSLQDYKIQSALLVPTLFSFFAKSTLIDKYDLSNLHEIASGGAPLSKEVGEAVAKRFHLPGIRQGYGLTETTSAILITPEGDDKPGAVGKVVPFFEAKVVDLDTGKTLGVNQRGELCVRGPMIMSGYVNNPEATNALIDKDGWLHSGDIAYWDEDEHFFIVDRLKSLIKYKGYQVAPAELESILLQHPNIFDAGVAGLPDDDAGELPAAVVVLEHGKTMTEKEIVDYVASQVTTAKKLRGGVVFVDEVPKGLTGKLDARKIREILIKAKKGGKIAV
T1 sequence (Q92915 1-252 isoform Q92915-2): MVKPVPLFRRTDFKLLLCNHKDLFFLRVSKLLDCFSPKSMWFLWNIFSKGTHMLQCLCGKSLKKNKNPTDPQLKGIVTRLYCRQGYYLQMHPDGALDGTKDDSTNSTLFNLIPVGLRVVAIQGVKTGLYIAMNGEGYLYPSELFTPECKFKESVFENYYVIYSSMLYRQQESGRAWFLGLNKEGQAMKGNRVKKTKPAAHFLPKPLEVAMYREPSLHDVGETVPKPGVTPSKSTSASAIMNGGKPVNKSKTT
T1 sequence (Q9UQD0 1763-1976 limits assumed): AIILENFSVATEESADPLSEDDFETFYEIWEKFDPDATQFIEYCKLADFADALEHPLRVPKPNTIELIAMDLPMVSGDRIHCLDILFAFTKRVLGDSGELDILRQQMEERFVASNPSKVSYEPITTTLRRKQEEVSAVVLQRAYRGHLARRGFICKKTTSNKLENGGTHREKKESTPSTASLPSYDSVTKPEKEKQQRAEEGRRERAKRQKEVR

`NC(=O)Nc1cc(-c2cccc(F)c2)sc1C(=O)N[C@H]1CCCNC1` [AZD 7762]: the viability in the data set “in vitro” came to 102%. Also, in data set [1], the “Split Luciferase Assay Z-score Set 1” value is listed as -1.38, the “Split Luciferase Assay % Lum Set 1” value is 82.95%, the “Split Luciferase Assay Z-score Set 2” value was -2.63 and the “Split Luciferase Assay %Lum Set 2” value turned out to be 67.62%. Moreover, the “Split Luciferase Assay %Lum Avg” value in data set [1] turned out to be 75.28%. In addition, in the data set on Clone V cells, the “Toxicity Assay Z-score (CTB cell viability)” value (shortened to “Toxicity Assay Z-score”) turned out to be 0.35. Besides, in data set [2] (setting [3]), the “Luciferase Assay % Lum (full-length luciferase counter-screen)” value is reported as 92.74% and the “Luciferase Assay Z-score (full-length luciferase counter-screen)” value is -0.93.
For the compound `CN(C)c1nc(N(C)C)nc(N(C)C)n1` [Altretamine], the viability at 16 h, 30 µM in the data set “in vitro” turned out to be 103%. For the same compound, in data set [1], the “Split Luciferase Assay Z-score Set 1” value is -0.59, the “Split Luciferase Assay % Lum Set 1” value turned out to be 92.73%, the “Split Luciferase Assay Z-score Set 2” value is on record as 1.85 and the “Split Luciferase Assay %Lum Set 2” value was determined as 122.76%. Also, the “Split Luciferase Assay %Lum Avg” value in data set [1] is reported as 107.74%. The “Toxicity Assay Z-score” value in the data set on Clone V cells (16 h, 30 µM) amounted to 0.43. For the same compound, in data set [2], the “Luciferase Assay % Lum (full-length luciferase counter-screen)” value is listed as 97.84% and the “Luciferase Assay Z-score (full-length luciferase counter-screen)” value was -0.28.
For the compound `NCC(=O)CCC(=O)O` [Aminolevulinic acid hydrochloride], in the data set “in vitro” (Clone V cells), the viability at 16 h, 30 µM was 102%. Besides, in data set [1], the “Split Luciferase Assay Z-score Set 1” value is listed as -0.06, the “Split Luciferase Assay % Lum Set 1” value is on record as 99.25%, the “Split Luciferase Assay Z-score Set 2” value amounted to 0.75 and the “Split Luciferase Assay %Lum Set 2” value is recorded as 109.23%. In addition, the “Split Luciferase Assay %Lum Avg” value in data set [1] worked out at 104.24%. The “Toxicity Assay Z-score” value in the data set with Clone V cells (16 h, 30 µM) came to 0.31. In addition, in data set [2] (setting [3]), the “Luciferase Assay % Lum (full-length luciferase counter-screen)” value was 100.02% and the “Luciferase Assay Z-score (full-length luciferase counter-screen)” value came out at 0.00.
In the case of `Nc1ncn([C@@H]2O[C@H](CO)[C@@H](O)[C@H]2O)c(=O)n1` [Azacitidine], the viability at 16 h, 30 µM in “in vitro” is 103%. Further, in data set [1], the “Split Luciferase Assay Z-score Set 1” value is listed as -0.32, the “Split Luciferase Assay % Lum Set 1” value was found to be 95.99%, the “Split Luciferase Assay Z-score Set 2” value is on record as 0.24 and the “Split Luciferase Assay %Lum Set 2” value is listed as 102.99%. Also, the “Split Luciferase Assay %Lum Avg” value in data set [1] is 99.49%. In addition, the “Toxicity Assay Z-score” value in the data set with Clone V cells (16 h, 30 µM) is 0.41. Also, in data set [2] (setting [3]), the “Luciferase Assay % Lum (full-length luciferase counter-screen)” value stood at 93.68% and the “Luciferase Assay Z-score (full-length luciferase counter-screen)” value was -0.81.
For the compound `O=C(NCCCNc1nc(Nc2cccc(NC(=O)N3CCCC3)c2)ncc1I)c1cccs1` [BX 795], the viability at 16 h, 30 µM in “in vitro” was found to be 103%. In data set [1], the “Split Luciferase Assay Z-score Set 1” value is -4.28, the “Split Luciferase Assay % Lum Set 1” value is given as 47.07%, the “Split Luciferase Assay Z-score Set 2” value was -5.85 and the “Split Luciferase Assay %Lum Set 2” value was 28.09%. Moreover, in data set [1], the “Split Luciferase Assay %Lum Avg” value amounted to 37.58%. Further, in the data set with Clone V cells (16 h, 30 µM), the “Toxicity Assay Z-score” value worked out at 0.47. Besides, in data set [2] (setting [3]), the “Luciferase Assay % Lum (full-length luciferase counter-screen)” value came out at 70.68% and the “Luciferase Assay Z-score (full-length luciferase counter-screen)” value is reported as -3.76.
As to `CS(=O)(=O)OCCCCOS(C)(=O)=O` [Busulfan], in “in vitro” (Clone V cells), the viability at 16 h, 30 µM came to 107%. In data set [1], the “Split Luciferase Assay Z-score Set 1” value is on record as -0.50, the “Split Luciferase Assay % Lum Set 1” value turned out to be 93.82%, the “Split Luciferase Assay Z-score Set 2” value was 1.01 and the “Split Luciferase Assay %Lum Set 2” value turned out to be 112.35%. Moreover, in data set [1], the “Split Luciferase Assay %Lum Avg” value worked out at 103.09%. Besides, in the data set on Clone V cells (16 h, 30 µM), the “Toxicity Assay Z-score” value is recorded as 0.92. For the same compound, in data set [2] (setting [3]), the “Luciferase Assay % Lum (full-length luciferase counter-screen)” value is 97.98% and the “Luciferase Assay Z-score (full-length luciferase counter-screen)” value is -0.26.

For orientation: viability means a read-out of living cells in per cent, often relative to untreated cells.
